Results published in ChEMBL document CHEMBL3862026, “Synthesis and biological evaluation of ranitidine analogs as multiple-target-directed cognitive enhancers for the treatment of Alzheimer's disease” (Bioorg Med Chem Lett, 2016).

Tests used:
Acetylcholinesterase = Acetylcholinesterase (Electrophorus electricus, UniProt O42275); experiment: Inhibition of electric eel AChE using acetylthiocholine as substrate preincubated for 8 mins followed by substrate addition by Ellman's method
Cholinesterase = Cholinesterase (Equus caballus, UniProt P81908); experiment: Inhibition of equine serum BuChE using butyrylthiocholine as substrate preincubated for 8 mins followed by substrate addition by Ellman's method
[1] = target: T1, Muscarinic acetylcholine receptor M1 (Rattus norvegicus) (UniProt P08482); experiment: Displacement of [3H]QNB from muscarinic M1 receptor in rat brain homogenates at 1 uM after 60 mins relative to control; assay type: tissue-based
T1 sequence (whole entry): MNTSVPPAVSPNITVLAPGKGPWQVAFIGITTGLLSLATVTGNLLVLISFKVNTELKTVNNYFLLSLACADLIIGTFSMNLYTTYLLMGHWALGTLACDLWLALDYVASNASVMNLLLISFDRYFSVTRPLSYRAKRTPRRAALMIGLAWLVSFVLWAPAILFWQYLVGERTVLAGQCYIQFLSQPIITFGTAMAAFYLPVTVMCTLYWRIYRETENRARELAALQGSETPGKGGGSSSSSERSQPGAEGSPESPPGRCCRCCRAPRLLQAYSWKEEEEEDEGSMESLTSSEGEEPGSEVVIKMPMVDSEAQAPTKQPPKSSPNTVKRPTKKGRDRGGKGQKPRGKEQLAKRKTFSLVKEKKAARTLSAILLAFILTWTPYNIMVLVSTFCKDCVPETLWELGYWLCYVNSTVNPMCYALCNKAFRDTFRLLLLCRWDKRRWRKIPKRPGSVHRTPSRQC

[2] = target: T2, Muscarinic acetylcholine receptor M2 (Rattus norvegicus) (UniProt P10980); experiment: Displacement of [3H]QNB from muscarinic M2 receptor in rat brain homogenates at 1 uM after 60 mins relative to control; assay type: tissue-based
T2 sequence (whole entry): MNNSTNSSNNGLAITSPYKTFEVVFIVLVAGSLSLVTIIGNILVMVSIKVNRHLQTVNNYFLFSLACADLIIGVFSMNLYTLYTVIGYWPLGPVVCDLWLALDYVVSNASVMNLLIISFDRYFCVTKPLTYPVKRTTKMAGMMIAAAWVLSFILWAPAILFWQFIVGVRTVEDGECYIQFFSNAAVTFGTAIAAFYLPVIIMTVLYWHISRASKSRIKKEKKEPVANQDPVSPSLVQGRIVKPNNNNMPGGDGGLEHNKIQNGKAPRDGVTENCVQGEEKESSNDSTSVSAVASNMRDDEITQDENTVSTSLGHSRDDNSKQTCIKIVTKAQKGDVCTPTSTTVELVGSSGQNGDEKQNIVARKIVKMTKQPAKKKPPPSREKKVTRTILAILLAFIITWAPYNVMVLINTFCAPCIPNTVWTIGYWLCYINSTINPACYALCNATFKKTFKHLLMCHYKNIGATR

[3] = target: Muscarinic acetylcholine receptor M3 (Rattus norvegicus) (UniProt P08483); experiment: Displacement of [3H]QNB from muscarinic M3 receptor in rat brain homogenates at 1 uM after 60 mins relative to control; assay type: tissue-based
[4] = target: T3, Muscarinic acetylcholine receptor M4 (Rattus norvegicus) (UniProt P08485); experiment: Displacement of [3H]QNB from muscarinic M4 receptor in rat brain homogenates at 1 uM after 60 mins relative to control; assay type: tissue-based
T3 sequence (whole entry): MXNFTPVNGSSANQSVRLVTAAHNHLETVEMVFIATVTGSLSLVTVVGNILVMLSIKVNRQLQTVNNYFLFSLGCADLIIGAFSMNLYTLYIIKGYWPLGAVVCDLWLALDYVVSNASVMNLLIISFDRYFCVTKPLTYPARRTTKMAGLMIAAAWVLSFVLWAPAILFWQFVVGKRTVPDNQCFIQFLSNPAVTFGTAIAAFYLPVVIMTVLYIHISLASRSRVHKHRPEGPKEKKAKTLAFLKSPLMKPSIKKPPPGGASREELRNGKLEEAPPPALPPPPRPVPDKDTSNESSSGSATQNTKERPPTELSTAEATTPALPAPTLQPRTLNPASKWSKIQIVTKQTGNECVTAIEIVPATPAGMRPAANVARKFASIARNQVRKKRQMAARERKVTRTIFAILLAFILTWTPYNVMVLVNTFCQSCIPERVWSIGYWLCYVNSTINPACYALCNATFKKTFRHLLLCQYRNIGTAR

Chain of Muscarinic acetylcholine receptor M3 (Rattus norvegicus) (P08483 whole entry, looked up): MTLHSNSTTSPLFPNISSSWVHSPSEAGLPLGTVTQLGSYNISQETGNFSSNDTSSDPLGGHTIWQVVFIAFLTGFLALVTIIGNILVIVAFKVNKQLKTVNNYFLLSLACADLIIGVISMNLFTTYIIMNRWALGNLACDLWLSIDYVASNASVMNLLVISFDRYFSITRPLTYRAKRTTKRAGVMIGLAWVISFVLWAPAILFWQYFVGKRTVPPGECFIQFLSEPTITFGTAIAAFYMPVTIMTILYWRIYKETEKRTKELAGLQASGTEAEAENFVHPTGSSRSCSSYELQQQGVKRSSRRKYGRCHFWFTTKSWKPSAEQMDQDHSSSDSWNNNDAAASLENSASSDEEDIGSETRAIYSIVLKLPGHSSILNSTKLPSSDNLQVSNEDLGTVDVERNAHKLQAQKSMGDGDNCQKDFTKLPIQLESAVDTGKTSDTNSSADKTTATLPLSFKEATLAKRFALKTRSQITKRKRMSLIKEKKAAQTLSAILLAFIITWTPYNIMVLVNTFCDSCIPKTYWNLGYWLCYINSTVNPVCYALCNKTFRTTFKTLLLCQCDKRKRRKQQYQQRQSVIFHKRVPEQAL
Chain of Acetylcholinesterase (O42275 whole entry): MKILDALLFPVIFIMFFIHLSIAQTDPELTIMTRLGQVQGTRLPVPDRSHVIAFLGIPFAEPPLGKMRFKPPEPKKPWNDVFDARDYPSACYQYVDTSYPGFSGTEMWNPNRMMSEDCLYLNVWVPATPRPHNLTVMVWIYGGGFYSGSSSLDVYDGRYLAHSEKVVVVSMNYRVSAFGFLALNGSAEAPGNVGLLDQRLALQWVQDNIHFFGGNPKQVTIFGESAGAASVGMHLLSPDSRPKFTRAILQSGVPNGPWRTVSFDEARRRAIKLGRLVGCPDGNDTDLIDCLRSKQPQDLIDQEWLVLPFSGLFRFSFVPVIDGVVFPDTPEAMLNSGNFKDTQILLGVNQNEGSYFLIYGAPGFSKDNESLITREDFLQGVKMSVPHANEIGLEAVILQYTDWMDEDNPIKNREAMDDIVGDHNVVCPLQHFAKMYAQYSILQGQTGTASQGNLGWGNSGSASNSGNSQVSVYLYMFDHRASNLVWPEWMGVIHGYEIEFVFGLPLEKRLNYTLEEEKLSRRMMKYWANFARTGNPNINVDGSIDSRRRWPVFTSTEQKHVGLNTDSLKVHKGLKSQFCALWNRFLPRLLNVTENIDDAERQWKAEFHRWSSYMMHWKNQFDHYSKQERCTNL
Chain of Cholinesterase (P81908 whole entry): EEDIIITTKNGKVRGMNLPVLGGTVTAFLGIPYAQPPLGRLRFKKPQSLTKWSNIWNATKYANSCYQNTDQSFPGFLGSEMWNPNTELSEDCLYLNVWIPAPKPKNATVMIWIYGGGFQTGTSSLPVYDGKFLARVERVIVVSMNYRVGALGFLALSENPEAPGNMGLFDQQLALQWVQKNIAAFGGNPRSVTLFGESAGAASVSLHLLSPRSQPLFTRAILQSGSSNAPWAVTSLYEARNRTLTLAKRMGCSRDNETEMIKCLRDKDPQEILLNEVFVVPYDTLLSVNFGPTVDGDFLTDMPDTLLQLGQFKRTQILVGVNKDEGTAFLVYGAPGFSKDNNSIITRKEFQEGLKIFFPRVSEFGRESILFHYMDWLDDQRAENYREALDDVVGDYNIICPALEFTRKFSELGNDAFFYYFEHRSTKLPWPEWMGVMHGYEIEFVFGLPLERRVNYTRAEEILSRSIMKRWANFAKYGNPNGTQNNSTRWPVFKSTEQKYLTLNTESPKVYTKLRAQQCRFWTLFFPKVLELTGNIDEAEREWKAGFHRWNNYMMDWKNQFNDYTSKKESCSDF

CCc1nnc(NCCSCc2ccc(CN(C)C)o2)c([N+](=O)[O-])c1CC showed an IC50 (Acetylcholinesterase) of 2.54 µM and an IC50 (Cholinesterase) of 18.8 µM.

CC1CC(=O)N(CCSCc2ccc(CN(C)C)o2)C1=O (stereo not given) showed an IC50 (Acetylcholinesterase) of 33.4 µM and an IC50 (Cholinesterase) greater than 50 µM.

Work on Cc1c(-c2ccccc2)nnc(NCCSCc2ccc(CN(C)C)o2)c1[N+](=O)[O-] yielded an IC50 (Acetylcholinesterase) of 0.16 µM, an IC50 (Cholinesterase) of 3.71 µM and an inhibition [1] of 84%. It also gave an inhibition [2] of 72%, an inhibition [3] of 63% and an inhibition [4] of 58%.

With CN(C)Cc1ccc(CSCCN2C(=O)c3cccc4cc([N+](=O)[O-])cc(c34)C2=O)o1 the IC50 (Acetylcholinesterase) was 0.15 µM and the IC50 (Cholinesterase) was 8.01 µM.

For Cc1nnc(NCCSCc2ccc(CN(C)C)o2)c([N+](=O)[O-])c1C, the IC50 (Acetylcholinesterase) was 2.72 µM, the inhibition [1] was 74% and the inhibition [2] was 63%. It also gave an inhibition [3] of 48% and an inhibition [4] of 67%.

CN(C)Cc1ccc(CSCCN2C(=O)c3ccccc3C2=O)o1 was tested, and the IC50 (Acetylcholinesterase) was 3.57 µM and the IC50 (Cholinesterase) was 14.5 µM.

Compound Cc1nnc(NCCSCc2ccc(CN(C)C)o2)c([N+](=O)[O-])c1-c1ccccc1 has an IC50 (Acetylcholinesterase) of 0.72 µM, an inhibition [1] of 60% and an inhibition [2] of 40%. It also gave an inhibition [3] of 52% and an inhibition [4] of 37%.

Compound CN(C)Cc1ccc(CSCCNC(=O)Cc2ccccc2Nc2c(Cl)cccc2Cl)o1 has an IC50 (Cholinesterase) of 7.65 µM, an inhibition [1] of 60.1% and an inhibition [2] of 27.4%. It also gave an inhibition [3] of 43.5% and an inhibition [4] of 47.3%.

CN(C)Cc1ccc(CSCCN2C(=O)c3ccc([N+](=O)[O-])cc3C2=O)o1 gave an IC50 (Acetylcholinesterase) of 46 µM and an IC50 (Cholinesterase) greater than 50 µM.

For Cc1ccc(S(=O)(=O)NCCSCc2ccc(CN(C)C)o2)cc1, the IC50 (Acetylcholinesterase) was greater than 50 µM and the IC50 (Cholinesterase) was 47.2 µM.

CN(C)Cc1ccc(CSCCNc2nc(N)n[nH]2)o1 showed an IC50 (Acetylcholinesterase) greater than 50 µM, an IC50 (Cholinesterase) greater than 50 µM and an inhibition [1] of 57.4%. It also gave an inhibition [2] of 71.3%, an inhibition [3] of 30.1% and an inhibition [4] of 43.6%.

CN(C)Cc1ccc(CSCCNc2nnc(-c3cccs3)c(-c3cccs3)c2[N+](=O)[O-])o1 showed an IC50 (Acetylcholinesterase) of 0.35 µM and an IC50 (Cholinesterase) of 2.28 µM.

Compound CN(C)Cc1ccc(CSCCNc2nncc(-c3ccccc3)c2[N+](=O)[O-])o1 has an IC50 (Acetylcholinesterase) of 0.46 µM, an IC50 (Cholinesterase) of 22.7 µM and an inhibition [1] of 40%. The inhibition [2] was 37%, the inhibition [3] was 27% and the inhibition [4] was 18%.

Compound CN(C)Cc1ccc(CSCCN/C(=C/[N+](=O)[O-])N2CCCCC2)o1 has an IC50 (Acetylcholinesterase) of 4.04 µM, an IC50 (Cholinesterase) of 21.2 µM and an inhibition [1] of 72.1%. For the same compound, the inhibition [2] was 54%, the inhibition [3] was 41.5% and the inhibition [4] was 47.7%.

CN(C)Cc1ccc(CSCCNc2ccc(Cl)nn2)o1 showed an IC50 (Acetylcholinesterase) of 10.4 µM, an IC50 (Cholinesterase) greater than 50 µM and an inhibition [1] of 25.2%. For the same compound, the inhibition [2] was 9.8%, the inhibition [3] was 2.3% and the inhibition [4] was 7.7%.

For Cc1cc([N+](=O)[O-])c(NCCSCc2ccc(CN(C)C)o2)nn1, the IC50 (Acetylcholinesterase) was 0.68 µM, the IC50 (Cholinesterase) was 28.4 µM and the inhibition [1] was 79%. For the same compound, the inhibition [2] was 78%, the inhibition [3] was 46% and the inhibition [4] was 57%.

In the case of CN(C)Cc1ccc(CSCCNc2ncccn2)o1, the IC50 (Acetylcholinesterase) is reported as 16.2 µM, the IC50 (Cholinesterase) is reported as 7.65 µM and the inhibition [1] is reported as 56.2%. It also gave an inhibition [2] of 50.8%, an inhibition [3] of 24.3% and an inhibition [4] of 24.9%.

With CN(C)Cc1ccc(CSCCNc2nnc(-c3ccccc3)c(-c3ccccc3)c2[N+](=O)[O-])o1 the IC50 (Acetylcholinesterase) was 0.19 µM, the IC50 (Cholinesterase) was 7.05 µM and the inhibition [1] was 76%. For the same compound, the inhibition [2] was 51%, the inhibition [3] was 73% and the inhibition [4] was 48%.

C=C1C(C)=NN/C(=C\[N+](=O)[O-])N1CCSCc1ccc(CN(C)C)o1 was tested, and the IC50 (Acetylcholinesterase) was 1.65 µM, the IC50 (Cholinesterase) was 7.1 µM and the inhibition [1] was 88.8%. It also gave an inhibition [2] of 81%, an inhibition [3] of 90.4% and an inhibition [4] of 92.1%.

Compound CN(C)Cc1ccc(CSCCN/C(=C/[N+](=O)[O-])N/N=C/c2ccccc2)o1 has an IC50 (Acetylcholinesterase) of 1.18 µM, an IC50 (Cholinesterase) of 2.96 µM and an inhibition [1] of 88.5%. The inhibition [2] was 67%, the inhibition [3] was 66.6% and the inhibition [4] was 62.3%.

CN(C)Cc1ccc(CSCCNc2nnc(-c3ccccc3)cc2[N+](=O)[O-])o1 was tested, and the IC50 (Acetylcholinesterase) was 0.26 µM, the IC50 (Cholinesterase) was 4.46 µM and the inhibition [1] was 40%. The inhibition [2] was 34%, the inhibition [3] was 38% and the inhibition [4] was 16%.

Compound CN(C)Cc1ccc(CSCCNc2ncccc2C#N)o1 has an IC50 (Acetylcholinesterase) of 5.34 µM and an IC50 (Cholinesterase) of 8.36 µM.

CS/C(=N\S(=O)(=O)c1ccc(C)cc1)NCCSCc1ccc(CN(C)C)o1 showed an IC50 (Acetylcholinesterase) greater than 50 µM, an IC50 (Cholinesterase) greater than 50 µM and an inhibition [1] of 37.5%. It also gave an inhibition [3] of 18.5% and an inhibition [4] of 4.2%.

With CN(C)Cc1ccc(CSCCNc2nc(N)no2)o1 the IC50 (Acetylcholinesterase) was greater than 50 µM, the IC50 (Cholinesterase) was greater than 50 µM and the inhibition [1] was 69.9%. The inhibition [2] was 72.8%, the inhibition [3] was 49.8% and the inhibition [4] was 42.7%.

CN(C)Cc1ccc(CSCCN2C(=O)c3cccc4cccc(c34)C2=O)o1 gave an IC50 (Acetylcholinesterase) of 1.27 µM and an IC50 (Cholinesterase) of 7.21 µM.

CN(C)Cc1ccc(CSCCNc2nnccc2[N+](=O)[O-])o1 was tested, and the IC50 (Acetylcholinesterase) was 0.47 µM, the inhibition [1] was 80% and the inhibition [2] was 97%. For the same compound, the inhibition [3] was 32% and the inhibition [4] was 74%.

Compound CN(C)Cc1ccc(CSCCNC(=O)c2ccccc2-c2ccccc2C(=O)O)o1 has an IC50 (Acetylcholinesterase) greater than 50 µM and an IC50 (Cholinesterase) greater than 50 µM.

In the case of Cc1cccc(Nc2ccccc2C(=O)NCCSCc2ccc(CN(C)C)o2)c1C, the IC50 (Acetylcholinesterase) is reported as greater than 50 µM, the IC50 (Cholinesterase) is reported as greater than 50 µM and the inhibition [1] is reported as 77.4%. For the same compound, the inhibition [2] was 50.8%, the inhibition [3] was 69.6% and the inhibition [4] was 33.8%.

With CN(C)Cc1ccc(CSCCN2C(=O)CCC2=O)o1 the IC50 (Acetylcholinesterase) was 11.8 µM and the IC50 (Cholinesterase) was greater than 50 µM.
